From patent US11160869B2 (priority 2019, dated 2021) come the findings set out here.

Data set [1] relates to growth factors, chemokines and cytokines. It is filed as in vivo, mice. The settings on record: mouse, in vivo.
A short description of data set [2]: Single oral capsule dose in NHP: plasma caffeine by LC-MS/MS. It is filed as in vivo, Macaca fascicularis. As for the experimental part: In order to quantitate plasma caffeine levels, an LC-MS/MS detection system was employed. A 25-μL matrix aliquot was fortified with 25 μL of 2.00 μg/mL caffeine-trimethyl-^13C3 internal standard working solution. Analytes were isolated through supported liquid extraction (SLE). A portion of the eluate was transferred and evaporated under a nitrogen stream at approximately 45° C., and the remaining residue reconstituted with 500 μL of water/acetonitrile (95:5, v/v). The final extract was analyzed via HPLC with MS/MS detection using positive ion electrospray and reverse phase chromatography. Caffeine concentration was determined using similarly run calibration controls.
IL-10 delivery construct dosing at multiple fixed doses in non-naïve adult male Macaca fascicularis was conducted by Valley Biosystems (West Sacramento, Calif.). […] Dosing groups are described in TABLE 45.

Data set [3] is described as follows: Surfactant evaluation under shear stress (vortex 800 rpm 4 h): visual, turbidity, SEC-HPLC. The data set is classed as physicochemical. The settings on record: for effect of surfactant on IL-10 delivery construct forms (SEC-HPLC): 1xPBS, before/after vortexing. On the procedure:
Following vortexing, the solution was visually inspected. The sample without a surfactant was slightly hazy while the samples with the surfactant were clear after vortexing. The turbidity (340-360 nm) of the solution was assessed after vortexing.
SEC-HPLC was carried out on the IL-10 delivery construct formulations before (FIG. 93) and after (FIG. 94) vortexing (TABLE 48).
Background: Size exclusion chromatography separates by hydrodynamic size, large species first.

Data set [4] concerns the target T1, IL-10RA and IL-10RB (Homo sapiens, UniProt Q08334+Q13651).
T1 sequence (Q13651 22-578): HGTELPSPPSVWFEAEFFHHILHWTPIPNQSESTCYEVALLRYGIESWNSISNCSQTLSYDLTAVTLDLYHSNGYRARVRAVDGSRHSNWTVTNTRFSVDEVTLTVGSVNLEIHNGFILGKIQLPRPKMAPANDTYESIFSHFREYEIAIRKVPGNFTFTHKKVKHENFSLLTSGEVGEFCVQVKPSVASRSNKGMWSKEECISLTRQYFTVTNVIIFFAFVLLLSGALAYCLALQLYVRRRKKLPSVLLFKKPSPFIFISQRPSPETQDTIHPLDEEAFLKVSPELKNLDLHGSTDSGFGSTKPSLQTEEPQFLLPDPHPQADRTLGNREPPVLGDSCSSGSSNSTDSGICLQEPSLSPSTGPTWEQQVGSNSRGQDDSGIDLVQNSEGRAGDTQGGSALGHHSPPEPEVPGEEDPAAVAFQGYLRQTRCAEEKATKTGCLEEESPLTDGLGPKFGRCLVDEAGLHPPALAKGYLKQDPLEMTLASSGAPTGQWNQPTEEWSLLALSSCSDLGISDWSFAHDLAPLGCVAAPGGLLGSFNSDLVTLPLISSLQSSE
T1 sequence (Q08334 20-325): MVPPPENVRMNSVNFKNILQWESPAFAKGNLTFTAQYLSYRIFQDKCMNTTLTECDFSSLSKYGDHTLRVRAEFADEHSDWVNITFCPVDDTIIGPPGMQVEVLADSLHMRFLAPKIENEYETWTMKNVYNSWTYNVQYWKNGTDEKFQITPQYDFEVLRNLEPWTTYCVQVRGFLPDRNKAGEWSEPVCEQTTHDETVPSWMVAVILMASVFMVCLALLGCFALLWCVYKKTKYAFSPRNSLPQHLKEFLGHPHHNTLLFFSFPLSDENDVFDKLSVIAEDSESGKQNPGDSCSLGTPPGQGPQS
The data set is described as follows: IL-10 receptor dimerization luminescence assay in engineered U2OS cells. The settings on record: 6 h.

Data set [5] deals with IL-1Ra. The data set is described as follows: Systemic IL-1Ra in non-inflamed mice (ELISA MSD). The data set is classed as in vivo. The conditions noted are these: construct 10 mg/kg; rhIL-10 3 mg/kg; oral. On the technique in general: In an ELISA, binding on a coated surface is turned into a signal by an enzyme label.
Data set [6] in a line: Intraluminal injection in T-cell transfer model: rhIL-10 ELISA in intestinal tissue and serum. The data set is classed as in vivo, BALB/c and SCID mice. The conditions noted are these: intraluminal injection. On the procedure: This study was conducted to examine the potential for the carrier protein to transport rhIL-10 from the intestinal lumen into the submucosal region in inflamed intestinal tissue. The T lymphocyte (T cell) transfer model was used as it is a well-established model of induced chronic colitis in mice and presents many of the essential immunological hallmarks observed in IBD patients. Nine BALB/c mice and twelve SCID mice, including nine with the colitis-like model of inflammation, were dosed with 20 μl of test article via intraluminal injection into the distal ileum and the proximal, middle and distal colon. […] In each group, two mice were terminated 10 minutes after intraluminal injections, and one was terminated 40 minutes after intraluminal injections. Intestinal tissue and serum were collected. Collected tissue was fixed, embedded, sectioned and H&E stained for histological assessment of inflammatory status. ELISA analysis to measure rhIL 10 was performed on lysates prepared from intestinal tissue and serum (FIGS. 106A-106D).

In data set [7] the test system is STAT3. The data set is described as follows: pSTAT3 induction and hIL-10 in intestinal tissue 40 min after oral gavage, immunofluorescence and image analysis. The settings on record: 40 min post oral gavage. The data set is classed as in vivo, rat. On the procedure:
This observation is consistent with findings in mice that intestinal epithelial cells can express IL-10 receptors at their apical surface under certain conditions associated with development and maintenance of barrier function. […] In order to quantify how test articles affected intestinal IL-10 signal transduction pathways, image analysis was performed: high-throughput image batches were collected, segmented by epithelial versus lamina propria localization, and then by cellular features.

In data set [8] the test system is STAT3. The data set is described as follows: pSTAT3/total STAT3 in colon tissue of non-inflamed mice (ELISA MSD). The data set is classed as in vivo. The conditions noted are these: construct 1 mg/kg; rhIL-10 0.9 mg/kg; oral.
The subject of data set [9] is STAT3. The data set is described as follows: STAT3 phosphorylation in J774.2 macrophage cells.

Consider `Nc1ccc(O)c(C(=O)O)c1` [5-ASA, 5-aminosalicylic acid, reference compound], for which, in data set [1], the “oxazolone-induced increase in plasma GCSF/CSF3” value is “attenuated”.

For `Cn1c(=O)c2c(ncn2C)n(C)c1=O` [caffeine], the “time at which absorption of caffeine was observable (capsule opening)” value in data set [2] (all doses) is 2-3 hours post dose. In addition, the Cmax is 1350 ng/mL in data set [2] (male, cynomolgus monkey, plasma, po, 1 mg dosing group, 1x10 mg caffeine); 800 ng/mL in [2] (male, cynomolgus monkey, plasma, po, 20.5 mg dosing group, 1x10 mg caffeine); 3790 ng/mL in data set [2] (male, cynomolgus monkey, plasma, po, 82 mg dosing group, 4x10 mg caffeine); 6120 ng/mL in data set [2] (male, cynomolgus monkey, plasma, po, 4x10 mg caffeine). In data set [2] (male, cynomolgus monkey, plasma, po, all doses), the Tmax was determined as 4 h.

Take polysorbate 20: the “absorbance in the 340-360 nm range after vortexing” value in data set [3] (0.1% in 1xPBS) is on record as “increase in absorbance was also observed”. The “effect of surfactant on IL-10 delivery construct forms (SEC-HPLC)” value in data set [3] is “most amount of monomer before vortexing”.

Turning to polysorbate 80, in data set [3], the “effect of surfactant on IL-10 delivery construct forms (SEC-HPLC)” value was “increase in HMW aggregates and monomers”.

On to “rhIL-10: recombinant human IL-10, commercial preparation, comparator [reference compound]”, for which the EC50 in data set [4] (read-out: EC50, IL-10R dimerization) was 0.0915 nM. The “increase of systemic IL-1Ra” value in data set [5] was “did not significantly increase”. For the same molecule, the “rhIL-10 in serum of inflamed animals” value in data set [6] is on record as “minimal amounts of rhIL-10 were detected”. In addition, in data set [7], the “hIL-10 and pSTAT3 in intestinal tissue” value is given as “exhibited pSTAT3 induction in enterocytes but not in cells within the lamina propria”. Moreover, the “increase in ratio of pSTAT3 to total STAT3” value in data set [8] is “did not significantly alter”. Moreover, in data set [9], the “amplitude of pSTAT3/total STAT3” value amounted to 2.19%.

B1: cholix derived carrier: truncated non-toxic cholix variant of 386 amino acids, carrier alone (protein)
chain: VEEALNIFDECRSPCSLTPEPGKPIQSKLSIPSDVVLDEGVLYYSMTINDEQNDIKDEDKGESIITIGEFATVRATRHYVNQDAPFGVIHLDITTENGTKTYSYNRKEGEFAINWLVPIGEDSPASIKISVDELDQQRNIIEVPKLYSIDLDNQTLEQWKTQGNVSFSVTRPEHNIAISWPSVSYKAAQKEGSRHKRWAHWHTGLALCWLVPMDAIYNYITQQNCTLGDNWFGGSYETVAGTPKVITVKQGIEQKPVEQRIHFSKGNAMSALAAHRVCGVPLETLARSRKPRDLTDDLSCAYQAQNIVSLFVATRILFSHLDSVFTLNLDEQEPEVAERLSDLRRINENNPGMVTQVLTVARQIYNDYVTHHPGLTPEQTSAGAQA
Consider B1, for which the “EC50, IL-10R dimerization” value in [4] is reported as “did not induce IL-10R dimerization”.

What is called Cmax is the maximum level reached in the sampled fluid or tissue. By Tmax is commonly meant the time from dosing to the highest level. As usually defined, the EC50 is the concentration at which the effect is half-maximal.
